Entries after “also recorded” stand apart in the source; their conditions may differ. Where two headings read alike, the source gives them in different places.
Experiments:
[1] = test system: NPA cells; test: MTT cell proliferation assay, NPA cells; settings: 4 μM U0126, 0.2 μM Akti IV, 5-day course
Description: FIG. 1B) Inhibition of cell proliferation by suppression of MAPK and PI3K/Akt pathways achieved with U0126 and Akti IV individually or in combination (U+A) as indicated. MTT assay was performed to evaluate cell proliferation over a 5-day course of treatment with U0126 and Akti IV.
(§4) FIG. 7B) Inhibition of thyroid cancer cell proliferation by suppression of PI3K/Akt and MAP kinase pathways achieved with Akti IV and U0126 individually or in combination (U+A) as indicated. MTT assay was performed to evaluate cell proliferation over a 5-day course of treatment with Akti IV and U0126.

[2] = test system: phosphorylation of Akt (p-Akt); test: Western blotting of phosphorylated Akt in NPA cells; settings: Akti IV 0.5 μM, 30 h
Description: FIGS. 1A-1C Effects of suppression of the MAPK and PI3K/Akt pathways by specific inhibitors on NPA cells. FIG. 1A) Inhibition of ERK and Akt phosphorylation by suppression of MAPK and PI3K/Akt pathways using the MEK-specific inhibitor U0126 and the Akt-specific inhibitor Akti IV, respectively. NPA cells were treated with U0126 at 10 μM, or with Akti IV at 0.5 μM for 30 h. Cells were lysed for Western blotting assay. The activities of MAPK and PI3K/Akt pathways were reflected by the level of phosphorylated ERK and Akt detected with specific anti-phosphorylated ERK (p-ERK) and anti-phosphorylated Akt (p-Akt) antibodies. Immunoblotting with antibody against β-actin was used for quality control.
Effects of suppression of the PI3K/Akt and MAP kinase pathways by specific inhibitors on thyroid cancer cells. FIG. 7 A) Inhibition of Akt and ERK phosphorylation by suppression of PI3K/Akt and MAP kinase pathways using the Akt-specific inhibitor Akti IV and the MEK-specific inhibitor U0126, respectively. NPA and KAT10 cells were treated with Akti IV at 0.5 and 2 μM, respectively, or with U0126 at 10 μM for 30 h. Cells were lysed for Western blotting assay. The activities of PI3K/Akt and MAP kinase pathways were reflected by the level of phosphorylated Akt and ERK detected with specific anti-phosphorylated Akt (p-Akt) and anti-phosphorylated ERK (p-ERK) antibodies. […]

[3] = test system: NIS protein; test: Flow cytometry and immunofluorescence of NIS protein expression, KAT10 cells; format: cell-based, human; settings: U0126 10 μM, Akti IV 2 μM, control 8.8%
Description: FIG. 14A-14C. […] FIG. 14A) Flow cytometric measurement of NIS protein expression. […] NIS protein levels were measured by flow cytometry. The blue frames indicate the cells expressing NIS protein, including dead (right upper quadrant; positive for both 7-AAD and NIS) and living (right lower quadrant, positive only for NIS) cells. FIG. 14B) Immunofluorescent localization of NIS. After a 30-h combined treatment with both Akti IV and U0126 (as in FIG. 14A), cells were analyzed by immunofluorescent microscopy using anti-NIS and FITC-coupled secondary antibody and double immunofluorescence with the red color representing 7-AAD nuclear staining and the green color representing NIS expression and localization. […] FIG. 14C) In vitro radioiodide uptake. […] Cells were subsequently incubated with 1 μCi Na125I/0.5 ml/well on 12-well plates for 1 h. Cells were then washed and harvested for radioactivity measurement using a gamma-counter as described in the Experimental Procedures. Data are expressed as the mean±SD of values from three assays. **, P<0.01, compared with control or empty vector. […]

[4] = test system: NPA cells; test: Radioactive iodide uptake assay, NPA cells; format: cell-based, human; settings: NPA cells treated with inhibitors, 1 μCi Na125I, 1 h
Description: (§1) FIG. 6A-6D. […] After a serum starvation for 24 h, total RNA was isolated for expression analysis for the indicated thyroid iodide-metabolizing genes. RT-PCR analysis was performed for the expression of NIS in NPA cells. FIG. 6B) Flow cytometric measurement of NIS protein expression. NPA cells were treated with specific inhibitors (upper panel) as described in FIG. 1 or stably transfected with specific siRNAs to knock down BRAF and Akt-1/2, individually or in combination as described in FIG. 3 (lower panel). NIS protein levels were measured by flow cytometry. […] After a 30-h combined treatment with both U0126 and Akti IV (as in FIG. 6B), cells were analyzed by immunofluorescent microscopy using anti-NIS and FITC-coupled secondary antibody and double immunofluorescence with the red color representing 7-AAD nuclear staining and the green color representing NIS expression and localization. […] Cells were then washed and harvested for radioactivity measurement using a gamma-counter as described in the Materials and Methods. Data are expressed as the mean±SD of values from three assays. **, P<0.01, compared with control or empty vector.
(§2) FIG. 14A-14C. […] NIS protein levels were measured by flow cytometry. […] Cells were then washed and harvested for radioactivity measurement using a gamma-counter as described in the Experimental Procedures. […]

[5] = test system: thyroid iodide-handling genes (NIS, TSHR, Tg, TPO, FOXE1, TTF1); test: RT-PCR / quantitative RT-PCR of thyroid iodide-handling genes, NPA cells; format: cell-based, human; settings: U0126 10 μM, Akti IV 0.5 μM, 30 h
[6] = test system: phosphorylation of Akt (p-Akt); test: Western blotting of phosphorylated Akt in KAT10 cells; settings: Akti IV 2 μM, 30 h
Description: Effects of suppression of the PI3K/Akt and MAP kinase pathways by specific inhibitors on thyroid cancer cells. […] NPA and KAT10 cells were treated with Akti IV at 0.5 and 2 μM, respectively, or with U0126 at 10 μM for 30 h. Cells were lysed for Western blotting assay. The activities of PI3K/Akt and MAP kinase pathways were reflected by the level of phosphorylated Akt and ERK detected with specific anti-phosphorylated Akt (p-Akt) and anti-phosphorylated ERK (p-ERK) antibodies. Immunoblotting with antibody against β-actin was used for quality control.
Cells were lysed in RIPA buffer (Santa Cruz, Calif.). Cellular proteins were resolved by electrophoresis on a SDS-polyacrylamide (10%) gel (SDS-PAGE), transferred onto PVDF membranes (Amersham Pharmacia Biotech, Piscataway, N.J.), and immunoblotted with specific primary antibodies. Anti-BRAF (Sc-166), anti-phospho-Akt-1/2/3 (Sc-7985-R), anti-phospho-ERK (Sc-7383), and anti-Actin (Sc-1616-R) were purchased from Santa Cruz (Santa Cruz, Calif.). Anti-Akt-1 (#2967) and anti-Akt-2 (#2964) were purchased from Cell Signaling Technologies, Inc. (Beverly, Mass.). Antigen-antibody complexes were visualized using HRP-conjugated anti-mouse (Sc-2005, Santa Cruz, Calif.) or anti-rabbit (Sc-2004, Santa Cruz, Calif.) IgG antibodies and ECL Western Blotting Analysis System (Amersham Pharmacia).

[7] = test system: KAT10 cells; test: Radioactive iodide uptake assay, KAT10 cells; format: cell-based, human; settings: KAT10 cells treated with inhibitors, 1 μCi Na125I, 1 h
Description: FIG. 14A-14C. […] FIG. 14A) Flow cytometric measurement of NIS protein expression. […] NIS protein levels were measured by flow cytometry. The blue frames indicate the cells expressing NIS protein, including dead (right upper quadrant; positive for both 7-AAD and NIS) and living (right lower quadrant, positive only for NIS) cells. FIG. 14B) Immunofluorescent localization of NIS. After a 30-h combined treatment with both Akti IV and U0126 (as in FIG. 14A), cells were analyzed by immunofluorescent microscopy using anti-NIS and FITC-coupled secondary antibody and double immunofluorescence with the red color representing 7-AAD nuclear staining and the green color representing NIS expression and localization. […] FIG. 14C) In vitro radioiodide uptake. […] Cells were subsequently incubated with 1 μCi Na125I/0.5 ml/well on 12-well plates for 1 h. Cells were then washed and harvested for radioactivity measurement using a gamma-counter as described in the Experimental Procedures. Data are expressed as the mean±SD of values from three assays. **, P<0.01, compared with control or empty vector.
Thyroid cancer cells (1×10^6 cells/well) treated under the indicated conditions were seeded in 12-well plates. […] Cells were collected and radioactivity was counted by a gamma-counter.

[8] = test system: NIS protein; test: Flow cytometry and immunofluorescence of NIS protein expression, NPA cells; format: cell-based, human; settings: U0126 10 μM, Akti IV 0.5 μM, 30 h, control 3.4%
Description: as §1, §2

[9] = test system: KAT10 cells; test: MTT cell proliferation assay, KAT10 cells; settings: 4 μM U0126, 1 μM Akti IV, 5-day course
Description: as §4

[10] = test system: thyroid genes (Tg, TSHR, NIS, TTF-1, TTF2); test: Quantitative real-time PCR of thyroid iodide-metabolizing genes, KAT10 cells; format: cell-based, human; settings: U0126 10 μM, Akti IV 2 μM, 30 h
[11] = test system: phosphorylation of ERK (p-ERK); settings: NPA cells, U0126 10 μM, 30 h
Text: Cells were lysed for Western blotting assay.
(§3) FIG. 7A-7C. […] Cells were lysed for Western blotting assay.
Cells were lysed in RIPA buffer.

[12] = test system: phosphorylation of ERK (p-ERK); settings: KAT10 cells, U0126 10 μM, 30 h
Text: as §3

CC[n+]1c(/C=C/N(C)c2ccccc2)n(-c2ccccc2)c2ccc(-c3nc4ccccc4s3)cc21.[I-] [Akti IV, Akt inhibitor IV]
inhibition of cell proliferation (MTT) [1]: partially | inhibition of phosphorylation of Akt (p-Akt) [2]: strongly inhibited | NIS expression (cells expressing NIS protein, flow cytometry) [3]: 29% | radioiodide uptake [4]: significantly increased | expression of iodide-handling genes (NIS, TSHR, Tg, TTF1) [5]: restored; also recorded: induced or dramatically enhanced | inhibition of phosphorylation of Akt (p-Akt) [6]: strongly inhibited | Na125I uptake [7]: significantly increased | NIS expression (cells expressing NIS protein, flow cytometry) [8]: 13.7% | inhibition of cell proliferation (MTT) [9]: partially | expression of thyroid genes (Tg, TSHR, NIS, TTF1) [10]: restored

N#CC(=C(/N)Sc1ccccc1N)/C(C#N)=C(\N)Sc1ccccc1N [U0126]
inhibition of cell proliferation (MTT) [1]: partially | inhibition of phosphorylation of ERK (p-ERK) [11]: strongly inhibited | NIS expression (cells expressing NIS protein, flow cytometry) [3]: 11.8% | radioiodide uptake [4]: significantly increased | inhibition of phosphorylation of ERK (p-ERK) [12]: strongly inhibited | expression of iodide-handling genes (NIS, TSHR, Tg, TTF1) [5]: restored; also recorded: induced or dramatically enhanced | Na125I uptake [7]: significantly increased | NIS expression (cells expressing NIS protein, flow cytometry) [8]: 6% | inhibition of cell proliferation (MTT) [9]: partially | expression of thyroid genes (Tg, TSHR, NIS, TTF1) [10]: restored

Source: patent publication US9273318B2, “Induction of thyroid iodide-handling gene expression in human cancers” (THE JOHNS HOPKINS UNIVERSITY, priority 2008, dated 2016)
